What was measured:
Type in all cases: cell-based, Staphylococcus aureus (Oxford)
[1] = system: stationary phase Staphylococcus aureus; assay: In vitro efficacy test against stationary phase Staphylococcus aureus (CFU counts); details: CFU counts over 8 hours
Description: (§1) Staphylococcus aureus (Oxford); Gram positive; Reference strain.
Stationary phase growth of methicilin sensitive Staphylococcus aureus (MSSA) was carried out as follows:
Subculture of the bacterial strains on agar plates: Overnight S. aureus bacterial cultures were stored at −70° C. with 20% glycerol (cryoprotectant). A loopful of the frozen cells was streaked on a blood agar plate which was incubated at 37° C. overnight (or longer) as culture plate A. A single colony of each strain from the culture plate A was streaked on the blood agar plate which was incubated at 37° C. overnight (or longer) as culture plate B. The culture plate B was stored at 4° C. for a week and served as the initial inoculation plate.
Bacterial growth in broth culture: A single colony from culture plate B was inoculated in 10 ml of nutrient broth (No. 2, (Oxoid)), which was incubated overnight at 37° C. with continuous shaking at 120 rpm. 200 μl of the overnight culture was added into a 500 ml bottle containing 100 ml of nutrient broth. The 100 ml culture was incubated at 37° C. with continuous shaking for 6 to 7 days. Viability of the cultures is estimated by colony forming unit (CFU) counts at 2 hour intervals for the first 24 hours and 12 to 24 hours afterwards.
Colony Forming Unit (CFU) counts were performed as follows: From serial 10-fold dilutions of the cultures, 100 μl samples were added to one third of blood agar plates (Oxoid) in triplicate. CFUs were counted using an aCoLyte colony counter (Synbiosis) after incubation of the plates at 37° C. for 24 hours or longer.
7 day old stationary phase cultures were used. The stationary phase cultures were diluted to obtain CFU counts in the cell suspension of 10^6 to 10^7 CFU/ml. The cell suspension was used to test drug sensitivity.
(§2) HT61 was dissolved in DMSO to the stock concentration of 10 mg/ml.
HT00800059 was dissolved in H2O to the stock solution 10 mg/ml
The drugs were first diluted as follows: • 7.2 μl of HT61 at 10 mg/ml was added into 292.8 μl of H2O followed by diluting 2 fold, 3 times. • 57.6 μl of HT00800059 at 10 mg/ml was added into 242.4 μl of H2O followed by diluting 2 fold, 2 times. • 10 μl of HT00800059 from each dilution was added into the wells of a 96 well plate followed by the addition of 290 μl of bacterial cell suspension to make the final concentrations of HT00800059 at 64, 32 and 0 μg/ml. • […]
In combination of two drugs: 10 μl of HT61 from each dilution was added into the wells of a 96 well plate followed by the addition of 10 μl of HT00800059 from each dilution. […]

[2] = system: log phase Staphylococcus aureus; assay: Chequerboard analysis of HT00800059 and HT61 against log phase Staphylococcus aureus
Description: as §1
(§3) Log phase growth of methicilin sensitive Staphylococcus aureus (MSSA) was carried out as follows: • Bacteria were grown in 10 ml of nutrient broth (No. 2, (Oxoid)) overnight at 37° C. with continuous shaking at 120 rpm. The overnight cultures were diluted 1000× with iso-sensitest broth. The cultures were incubated at 37° C. with shaking for 1-2 hours to reach log CFU 6. Viability of the bacteria was estimated by colony forming unit (CFU) counts. From serial 10-fold dilutions of the experimental cultures, 100 μl samples were added to triplicate plates of nutrient agar plates (Oxoid) or blood agar plates (Oxoid). CFUs were counted after incubation of the plates at 37° C. for 24 hours.
(§4) Bacterial cultures: 10 μl of overnight cultures was added to 10 ml of fresh iso-sensitest broth to make the inoculation to 10^6 CFU/ml. 290 μl of the cell suspension was added to each well of the 96 well plate, which was incubated at 37° C. for 24 hours. 300 μl of iso-sensitest broth without bacterial cells were added to wells of the plate as a no bacterial control.
(§5) MIC determination: The optical density of the bacterial cells was read at 405 nm using a plate reader (Bio TEK). The MIC concentration was determined as the lowest concentration of drug which inhibits the bacterial growth.
as §2
(§6) HT00800059 was dissolved in H2O to the stock solution 30.07 mg/ml.
The drugs were first diluted as follows: • 28.8 μl of HT61 at 10 mg/ml was added into 271.2 μl of H2O followed by diluting 2 fold for 6 times.
Both drugs were mixed as following pattern: 10 μl of HT00800059 from each dilution was added into the wells of a 96 well plate from top to bottom and 10 μl of HT61 from each dilution was added to the same 96 well plate from left to right. After addition of 280 μl log phase cell suspension, the final concentrations of drugs for each well in the 96 well plate are shown in the table below.
Incubation of the compounds with the bacterial suspension was carried out for 24 hours. The kill effect of the drug combination and signal drug MIC was measured by optical density reading at 405 nm with a plate reader (Bio TEK). The MIC concentration was determined as the lowest concentration of drug which inhibits the bacterial growth.
(§7) The fractional inhibitory concentration (FIC) index was carried out as follows: (MIC of drug A, tested in combination)/(MIC of drug A, tested alone)+(MIC of drug B, tested in combination)/(MIC of drug B, tested alone). The interaction was defined as synergistic if the FIC index was <1, additive if the FIC index was =1 and antagonistic if the FIC index was >1.

[3] = system: log phase Staphylococcus aureus; assay: Chequerboard analysis of HT00800059 with HT230 or HT281 against log phase Staphylococcus aureus; details: for optical density reading at 405 nm: HT00800059 μg/ml: 1024,512,256,128,64,32,16,0, 24 hours; for MIC: Staphylococcus aureus, summary list, read-out: alone MIC
Description: as §1, §3, §4, §5
HT230 was dissolved in DMSO to the stock concentration of 10 mg/ml.
HT281 was dissolved in DMSO to the stock concentration of 10 mg/ml.
as §6
HT230 or HT281 (10 mg/ml) was firstly diluted to 0.96 mg/ml, then a serial of 2 fold dilution was carried out.
This was followed by the addition of 280 μl of log phase culture at 10^6 CFU/ml to make the final concentrations of each drug as shown.
In the above table, values in bold text are for HT00800059. Values in plain text are for HT230 or HT281. The numbers shown in each well are μg/ml.
Incubation of the compounds with the bacterial suspension was carried out for 24 hours. The kill effects of the drug combination were measured by optical density reading at 405 nm with a plate reader (Bio TEK).
as §7

Question: With `Cc1nc2ccc(Oc3ccccc3)cc2c2c1CCN2CCc1ccccc1` [HT61, 4-methyl-1-(2-phenylethyl)-8-phenoxy-2,3-dihydro-1H-pyrrolo[3,2-c]-quinoline] as the compound, how does the “activity against stationary phase S. aureus” value ([1]; 8 μg/ml) read?
Answer: low activity

Question: What about the “activity against stationary phase S. aureus” value ([1]; 4 and 2 μg/ml) of the same compound?
Answer: no observed activity

Question: And the MIC ([2]; Staphylococcus aureus, drug alone, Plate 1, read-out: MIC)?
Answer: 8 µg/mL

Question: And the MIC ([2]; Staphylococcus aureus, read-out: alone MIC)?
Answer: 16 µg/mL

Question: What about the MIC ([2]; Staphylococcus aureus, with HT00800059 128 μg/ml, Plate 1, read-out: MIC of HT61 + HT00800059) of the same compound?
Answer: 4 µg/mL

Question: And the MIC ([2]; drug alone, Plate 2)?
Answer: 8 µg/mL

Question: And the “MIC of HT61 + HT00800059” value ([2]; with HT00800059 128 μg/ml, Plate 2)?
Answer: 4 µg/mL

Question: What about the “HT61 MIC in combination” value ([2]; with HT00800059 at 128 μg/ml) of the same compound?
Answer: 8 µg/mL

Question: What does the source list for `Cc1cc(N2CCC(Cc3ccccc3)C2)c2cc(Oc3ccccc3)ccc2n1` (centres unmarked) [HT230, 4-(3-benzylpyrrolidin-1-yl)-2-methyl-6-phenoxyquinoline]?
Answer: optical density reading at 405 nm ([3]; HT230 0.03125 μg/ml): 1.237; optical density reading at 405 nm ([3]; HT230 0.0625 μg/ml): 1.312; optical density reading at 405 nm ([3]; HT230 0.125 μg/ml): 1.317; optical density reading at 405 nm ([3]; HT230 0.25 μg/ml): 1.401; optical density reading at 405 nm ([3]; HT230 0.5 μg/ml): 1.135; optical density reading at 405 nm ([3]; HT230 1 μg/ml): 1.160; optical density reading at 405 nm ([3]; HT230 2 μg/ml): 1.190; optical density reading at 405 nm ([3]; HT230 4 μg/ml): 0.365; optical density reading at 405 nm ([3]; HT230 8 μg/ml): 0.363; optical density reading at 405 nm ([3]; HT230 16 μg/ml): 0.357; optical density reading at 405 nm ([3]; HT230 32 μg/ml): 0.406; MIC after combination ([3]; HT230/HT00800059 chequerboard): 1 µg/mL; MIC before combination ([3]; HT230/HT00800059 chequerboard): 4 µg/mL; MIC [3]: 4 µg/mL; HT230 MIC in combination ([3]; with HT00800059 at 128 μg/ml): 4 µg/mL; HT230 MIC in combination ([3]; with HT00800059 at 256 μg/ml): 1 µg/mL

Question: `Cc1cc(N2CCC(Cc3ccccc3)C2)c2cc(NC(=O)c3ccccc3)ccc2n1` (centres unmarked) [HT281, N-[4-(3-benzylpyrrolidin-1-yl)-2-methylquinolin-6-yl]benzamide] was tested. Which “optical density reading at 405 nm” value ([3]; HT281 0.125 μg/ml) did it give?
Answer: 1.334

Question: And the “optical density reading at 405 nm” value ([3]; HT281 0.25 μg/ml)?
Answer: 1.281

Question: What about the “optical density reading at 405 nm” value ([3]; HT281 0.5 μg/ml) of the same compound?
Answer: 1.378

Question: What about the “optical density reading at 405 nm” value ([3]; HT281 0.625 μg/ml) of the same compound?
Answer: 1.256

Question: What about the “optical density reading at 405 nm” value ([3]; HT281 1 μg/ml) of the same compound?
Answer: 1.263

Question: And the “optical density reading at 405 nm” value ([3]; HT281 2 μg/ml)?
Answer: 1.157

Question: And the “optical density reading at 405 nm” value ([3]; HT281 4 μg/ml)?
Answer: 1.080

Question: And the “optical density reading at 405 nm” value ([3]; HT281 8 μg/ml)?
Answer: 0.361

Question: What about the “optical density reading at 405 nm” value ([3]; HT281 16 μg/ml) of the same compound?
Answer: 0.364

Question: And the “optical density reading at 405 nm” value ([3]; HT281 32 μg/ml)?
Answer: 0.396

Question: And the “optical density reading at 405 nm” value ([3]; HT281 64 μg/ml)?
Answer: 0.558

Question: What about the MIC after combination ([3]; HT281/HT00800059 chequerboard) of the same compound?
Answer: 4 µg/mL

Question: What about the MIC before combination ([3]; HT281/HT00800059 chequerboard) of the same compound?
Answer: 8 µg/mL

Question: And the MIC [3]?
Answer: 8 µg/mL
